Key:
[1] = tested on: T1, UBE1; assay: Gel-based ubiquitylation assay (UBE2T/GST-FANCLRING), autoubiquitylation of UBE1; format: biochemical; settings: compound 100 μM; Western blot probed for biotin
T1 construct: purchased Boston Biochem

[2] = tested on: mUb-FANCD2 (UBE2T and FANCL-dependent monoubiquitylation of FANCD2); assay: Immunoblot of mUb-FANCD2 formation in U2OS cells; format: cell-based; settings: for level of mUb-FANCD2 in response to HU: CU1 200 μM or CU2 500 μM, 8 h; for level of mUb-FANCD2 in response to HU / level of mUb-FANCD2: HU 2.5 mM; for level of mUb-FANCD2: compound 100 μM, 1 h preincubation, 24 h
Description: U2OS cells were treated with HU and the formation of mUb-FANCD2 in the presence of CU 1, CU2, and CU9 was evaluated relative to a DMSO control. Following a 1-h preincubation with the compounds, cells were treated with 2.5 mM of HU for 24 h. […] Accordingly, cells were treated with a higher concentration of compounds in further experiments.
Figure 3 Cell-based assays with CU1 and CU2: (a) Western blot showing that the formation of mUb-FANCD2(*), in response to HU treatment (2.5 mM, 8 h), is impaired in U2OS cells in the presence of CU1 (200 μM) or CU2 (500 μM). Ratio = mUb-FANCD2/FANCD2 (normalized to DMSO control). mUb-FANCD2 was resolved on a separate gel. PARP1 was used as a loading control for each gel, as well as to assess apoptosis. (b) Quantification of the reduction in mUb-FANCD2, in response to HU treatment (2.5 mM, 8 h) in the presence of CU1 (200 μM) or CU2 (500 μM). Mean calculated from three independent experiments. (c) Western blot showing that formation of mUb-FANCD2 (denoted by an asterisk symbol, *) in response to cisplatin treatment (10 μM) for 6, 12, and 24 h is impaired in U2OS cells in the presence of CU2 (500 μM). Ratio = mUb-FANCD2/FANCD2 (normalized to DMSO control). (d) Cell cycle analyses based upon EdU incorporation in cells treated with HU (2.5 mM, 8 h) in the presence or absence of CU1 (200 μM) or CU2 (500 μM). HU treatment was used for gating purposes. […] TEXT PRINTED IN THE PICTURE: (d) DMSO: S-phase 42.7; G1 29.2; G2-M 27.8 | (d) HU: S-phase 0.24; G1 72.4; G2-M 22.9 | (d) CU1: S-phase 43.4; G1 26.8; G2-M 29.1 | (d) CU2: S-phase 39.7; G1 31.9; G2-M 28.2 DOUBTS OF THE COPYIST ABOUT THIS PICTURE: Panel d print is small, so these digits are best readings: DMSO G2-M 27.8 (8 or 6); CU1 G1 26.8 (6 or 8); CU2 S-phase 39.7 (9 or 8); CU2 G2-M 28.2 (8 or 6) / Panels a and c: the lane ratios printed under the western blots (a: 1.0, 0.64, 0.40; c: 1.0/0.65, 1.0/0.63, 1.0/0.53) were left out because they belong to blots and the picture prints no measure for them […]
Reaction mixtures were incubated for the indicated time at 37 °C and stopped by the addition of 2X reducing SDS -PAGE sample buffer, separated on NuPAGE Novex 4 –12% Bis/Tris gradient gels (Invitrogen) and visualized by Western blotting using the indicated antibodies (Table S3).
Cell culture. U2OS cells were cultured at 37 °C in a humidified atmosphere and 5% (v/v) CO2 in Dulbecco's Modified Eagle Medium (DMEM; Sigma-Aldrich) supplemented with 10% (v/v) fetal bovine serum (FBS), 100 units/ml of penicillin, […] of streptomycin and 292 μg/mL L-glutamine.
Cell extract preparation and immunoblotting. U2OS cells were lysed in buffer containing 50 mM Tris-HCl pH 7.5, 2% SDS, 10 mM NEM, cocktail protease inhibitor (Roche) and phosphatase inhibitor cocktail followed by sonication 100 µg of extracts were boiled for 5 mins at 95 °C in 5X loading buffer and loaded onto NuPAGE Novex 4–12% Bis/Tris gradient gels
(Invitrogen), or NuPAGE Novex 3-8% Tris/Acetate gradient gels (Invitrogen) for detection of mUb-FANCD2. After separation the gels were transferred to PVDF and the membranes were blocked with Tris-buffered saline containing 0.1% (v/v) Tween-20 (TBST) and 5% (v/v) bovine serum albumin (BSA) and incubated with the indicated primary and secondary antibodies. mUb-FANCD2 intensity was quantified using Image Studio (LI-COR).
IncuCyte cell proliferation assays. 2000 U2OS cells were seeded per well in 96-well plates and treated with compounds 24 hours afterwards. After 1 hour of compound treatment, 15 µM carboplatin (Sigma-Aldrich) was added and the cells were cultured in an incubator with an IncuCyte microscopy -platform (Essen BioScience). Phase -contrast images were acquired every 6 hours for 8 days until DMSO-carboplatin treated cells reached >80% confluence. Cell proliferation was monitored as the occupied area (% confluence) of cell images over time and calculated as percentage confluence over time. Cell confluency […]

Row | SMILES | autoubiquitylation of UBE1 [1] | level of mUb-FANCD2 in response to HU [2] | level of mUb-FANCD2 [2] | level of mUb-FANCD2 in response to cisplatin ([2]; CU2 500 μM, cisplatin 10 μM for 6, 12 and 24 h)
1 | NCCN1C(=O)CC[C@H]2CN(Cc3cccc(-c4ccco4)c3)CC[C@H]21 [CU1] | did not affect ubiquitylation of either UBE2T or UBE1 | reduced the level of mUb-FANCD2 | no significant decrease in the level of mUb-FANCD2 | –
2 | CCN1CCN(c2cc(C)nc3nc(CN4CCCCC4C)nn23)CC1 (stereo not shown) [CU2] | did not affect ubiquitylation of either UBE2T or UBE1 | reduced the level of mUb-FANCD2 | no significant decrease in the level of mUb-FANCD2 | reduced the level of mUb-FANCD2
3 | Cc1nnc(N(C)CC2CCN(CC(C)O)CC2)c(C#N)c1C (stereo not shown) [CU9] | did not affect ubiquitylation of either UBE2T or UBE1 | – | no significant decrease in the level of mUb-FANCD2 | –
4 | NC(=O)[C@@H]1CCCN1C(=O)c1cc(-n2cccc2)ccc1Cl [CU12] | somewhat impaired the autoubiquitylation of UBE1 | – | – | –

Reference: PMC6804243, “Small-Molecule Inhibition of UBE2T/FANCL-Mediated Ubiquitylation in the Fanconi Anemia Pathway” (ACS Chemical Biology, 2019)
